Experimental data reported in patent publication US8399490B2, “Insecticides” (Syngenta Crop Protection LLC, priority 2007, dated 2013).
Read-outs that look alike come from different tables or passages of the source.

Key:
[1] = system: Spodoptera littoralis (Egyptian cotton leafworm); test: Example B1: Activity against Spodoptera littoralis (larvicide, feeding/residual contact activity, preventive), cotton leaf discs; type: in vivo; conditions: foliar, 72 h, L1 larvae on cotton leaf discs, 3 days after treatment
Text: Activity Against Spodoptera littoralis (Egyptian Cotton Leafworm)
(Larvicide, Feeding/Residual Contact Activity, Preventive)
The samples are checked for mortality, repellent effect, feeding behaviour, and growth regulation 3 days after treatment. In this test, compounds listed in Table P above show good activity. In particular compounds P.1, P.2, P.3, P.4, P.5, P.6, P.7, P.8, P.9, P.10, P.11, P.12, P.13, P.14, P.15, P.16, P.17, P.18, P.19, P.20, P.21, P.22, P.23, P.24, P.25, P.26, P.27, P.28, P.29, P.30, P.31, P.32, P.33, P.34, P.35, P.36, P.37, P.38, P.39, P.40, P.41, P.42, P.43, P.44, P.46, P.50, P.51, P.52, P.55, P.56, P.57, P.58, P.59, P.60, P61, P.66, P.67, P.68, P.69, P.70, P.71, P.72, P.73, P.74, P.75, P.76, P.77, P.78, P.83, P.84, P.87 and P.88 show an activity of over 80% at a concentration of 400 ppm.

[2] = system: Myzus persicae (green peach aphid); test: Example B6: Activity against Myzus persicae (mixed population, systemic/feeding activity, curative), pea seedling roots in test solution; conditions: 144 h, read-out: activity
[3] = system: Heliothis virescens (tobacco budworm); test: Example B2: Activity against Heliothis virescens (ovo-larvicide, feeding/contact activity, curative), eggs on artificial diet; type: in vivo; conditions: 96 h, 4 days incubation
Method: Activity Against Heliothis virescens (Tobacco Budworm) (Ovo-Larvicide, Feeding/Contact Activity, Curative) Eggs (0-24 h old) are placed in 24-well microtiter plate on artificial diet and treated with test solutions by pipetting. After an incubation period of 4 days, samples are checked for egg mortality, larval mortality, and growth regulation.

[4] = system: Myzus persicae (green peach aphid); conditions: foliar, 144 h, read-out: activity
[5] = system: Plutella xylostella (diamond back moth); test: Example B3: Plutella xylostella (larvicide, feeding/residual contact activity, preventive), artificial diet MTP; type: in vivo; conditions: 120 h, L2 larvae on artificial diet, 5 days incubation
Method: Plutella xylostella (Diamond Back Moth) (Larvicide, Feeding/Residual Contact Activity, Preventive) 24-well microtiter plate (MTP) with artificial diet is treated with test solutions by pipetting. After drying, the MTP's are infested with larvae (L2) (10-15 per well). After an incubation period of 5 days, samples are checked for larval mortality, antifeedant and growth regulation.

[6] = system: Diabrotica balteata (corn root worm); test: Example B4: Diabrotica balteata (larvicide, feeding/residual contact activity, preventive), artificial diet MTP; type: in vivo; conditions: 120 h, L2 larvae on artificial diet, 5 days incubation
Method: Diabrotica balteata (Corn Root Worm) (Larvicide, Feeding/Residual Contact Activity, Preventive) 24-well microtiter plate (MTP) with artificial diet is treated with test solutions by pipetting. After drying, the MTP's are infested with larvae (L2) (6-10 per well). After an incubation period of 5 days, samples are checked for larval mortality, antifeedant and growth regulation.

Measured: pest or weed control at 400 ppm

CNC(=O)c1c(NC(=O)c2cc(C(F)(F)F)nn2-c2ncccc2Cl)c(Cl)cc2c1OC(F)(F)O2 [P.15]
> 80%: all assays above

CSCC(C)(C)NC(=O)c1c(NC(=O)c2cc(C(F)(F)F)nn2-c2ncccc2Cl)c(Cl)cc2c1OC(F)(F)O2 [P.16]
> 80%: all assays above

CNC(=O)c1c(NC(=O)c2cc(Br)nn2-c2ncccc2Cl)c(C)cc2c1OC(F)(F)O2 [P.26]
> 80%: all assays above

CSCC(C)(C)NC(=O)c1c(NC(=O)c2cc(Cl)nn2-c2ncccc2Cl)c(Cl)cc2c1OC(F)(F)O2 [P.24]
> 80%: all assays above

CNC(=O)c1c(NC(=O)c2cc(Cl)nn2-c2ncccc2Cl)c(Cl)cc2c1OC(F)(F)O2 [P.22]
> 80%: all assays above

CSCC(C)(C)NC(=O)c1c(NC(=O)c2cc(Br)nn2-c2ncccc2Cl)c(C)cc2c1OC(F)(F)O2 [P.27]
> 80%: all assays above

CNC(=O)c1c(NC(=O)c2cc(Cl)nn2-c2ncccc2Cl)c(C)cc2c1OC(F)(F)O2 [P.29]
not listed: [4]
> 80%: all other assays above

COc1cc(C(=O)Nc2c(C)cc3c(c2C(=O)NC(C)C)OCO3)n(-c2ncccc2Cl)n1 [P.77]
> 80%: [1] | [2] | [3] | [5]

Cc1cc2c(c(C(=O)NC(C)C)c1NC(=O)c1cc(Br)nn1-c1ncccc1Cl)OC(F)(F)O2 [P.14]
not listed: [6]
> 80%: all other assays above

Cc1cc2c(c(C(=O)NC(C)C)c1NC(=O)c1cc(C(F)F)nn1-c1ncccc1Cl)OCO2 [P.74]
not listed: [4]
> 80%: all other assays above
